The source of these data is patent US20090069300A1, “ISOQUINOLINYL AND ISOINDOLINYL DERIVATIVES AS HISTAMINE-3 ANTAGONISTS” (Wyeth, priority 2007, published 2009).

As usually defined, the Ki is the equilibrium dissociation constant of an inhibitor or competing ligand from its target. Usually melting point stands for the temperature of the solid-liquid transition.

SMILES strings stand for the structures. Structures can show the parent of a compound that is named as a salt.

One series deals with T1, Human Histamine H3 Receptor (Homo sapiens, UniProt Q9Y5N1).
T1 construct: expressed in transfected cells; host or cells: HEK293T (stably transfected; membranes prepared from the cells)
T1 sequence (Q9Y5N1 whole entry): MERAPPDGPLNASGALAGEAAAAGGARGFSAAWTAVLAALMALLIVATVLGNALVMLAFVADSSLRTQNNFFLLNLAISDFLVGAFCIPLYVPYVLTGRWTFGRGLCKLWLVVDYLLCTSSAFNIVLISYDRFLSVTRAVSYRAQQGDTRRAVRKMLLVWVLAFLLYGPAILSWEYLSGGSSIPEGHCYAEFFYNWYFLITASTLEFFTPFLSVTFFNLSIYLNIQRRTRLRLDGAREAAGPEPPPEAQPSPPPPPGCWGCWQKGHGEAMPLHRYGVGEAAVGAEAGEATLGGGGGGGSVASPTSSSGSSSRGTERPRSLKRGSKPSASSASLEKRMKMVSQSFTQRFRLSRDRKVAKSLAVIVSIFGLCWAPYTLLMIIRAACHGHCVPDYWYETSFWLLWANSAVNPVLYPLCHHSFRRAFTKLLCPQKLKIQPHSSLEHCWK
The experiment in a line: Methyl histamine binding in human histamine H3 receptor cell line. To be noted: read-out: H3 Binding Ki. A digest of the protocol:
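Radioligand binding on membranes (10 μg/well) from a human H3 receptor cell line, 1 nM radioligand, 1 h at 30° C. in 50 mM Tris pH 7.5. Nonspecific binding defined with 10 uM clobenpropit, followed by filtration and scintillation counting. IC50 from four-parameter fit, converted to Ki by Cheng-Prusoff.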
`COC[C@H](C)NC(=O)c1ccc(-c2ccc3c(c2)CCN(CCN2CCCC2)C3=O)cc1` [Example 126, N-[(1S)-2-methoxy-1-methylethyl]-4-[1-oxo-2-(2-pyrrolidin-1-ylethyl)-1,2,3,4-tetrahydroisoquinolin-6-yl]benzamide]: the Ki was less than 10 nM.

Take `COC1CCN(C(=O)c2ccc(-c3ccc4c(c3)CCN(CCN3CCCC3)C4=O)cc2)C1` (centres unmarked) [Example 127, 6-{4-[(3-methoxypyrrolidin-1-yl)carbonyl]phenyl}-2-(2-pyrrolidin-1-ylethyl)-3,4-dihydroisoquinolin-1(2H)-one]: the Ki is less than 10 nM.

For the molecule `COC[C@@H]1CCCN1C(=O)c1ccc(-c2ccc3c(c2)CCN(CCN2CCCC2)C3=O)cc1` [Example 128, 6-(4-{[(2S)-2-(methoxymethyl)pyrrolidin-1-yl]carbonyl}phenyl)-2-(2-pyrrolidin-1-ylethyl)-3,4-dihydroisoquinolin-1(2H)-one], the Ki is less than 10 nM.

As for `O=C(Nc1nccs1)c1ccc(-c2ccc3c(c2)CCN(CCN2CCCC2)C3=O)cc1` [Example 130, 4-[1-oxo-2-(2-pyrrolidin-1-ylethyl)-1,2,3,4-tetrahydroisoquinolin-6-yl]-N-1,3-thiazol-2-ylbenzamide], the Ki was less than 10 nM.

Regarding `O=C(c1cc(-c2ccc3c(c2)CCN(CCN2CCCC2)C3=O)ccc1F)N1CCCC1` [Example 131, 6-[4-fluoro-3-(pyrrolidin-1-ylcarbonyl)phenyl]-2-(2-pyrrolidin-1-ylethyl)-3,4-dihydroisoquinolin-1-(2H)-one], the Ki is less than 10 nM.

Turning to `CN(C)C(=O)c1cc(-c2ccc3c(c2)CCN(CCN2CCCC2)C3=O)ccc1F` [Example 132, 2-fluoro-N,N-dimethyl-5-[1-oxo-2-(2-pyrrolidin-1-ylethyl)-1,2,3,4-tetrahydroisoquinolin-6-yl]benzamide], the Ki was less than 10 nM.

`O=C(c1ccc(-c2ccc3c(c2)CCN(CCN2CCCC2)C3=O)cc1Cl)N1CCCC1` [Example 134, 6-[3-chloro-4-(pyrrolidin-1-ylcarbonyl)phenyl]-2-(2-pyrrolidin-1-ylethyl)-3,4-dihydroisoquinolin-1(2H)-one]: the Ki is less than 10 nM.

Turning to `CN(C)C(=O)c1ccc(-c2ccc3c(c2)CCN(CCN2CCCC2)C3=O)c(F)c1` [Example 137, 3-fluoro-N,N-dimethyl-4-[1-oxo-2-(2-pyrrolidin-1-ylethyl)-1,2,3,4-tetrahydroisoquinolin-6-yl]benzamide], the inhibitory constant (Ki) is less than 10 nM.

For `O=C(c1ccc(-c2ccc3c(c2)CCN(CCN2CCCC2)C3=O)c(F)c1)N1CCCC1` [Example 138, 6-[2-fluoro-4-(pyrrolidin-1-ylcarbonyl)phenyl]-2-(2-pyrrolidin-1-ylethyl)-3,4-dihydroisoquinolin-1(2H)-one], the Ki was less than 10 nM.

Regarding `CNC(=O)c1ccc(-c2ccc3c(c2)CCN(CCN2CCCC2)C3=O)c(F)c1` [Example 139, 3-fluoro-N-methyl-4-[1-oxo-2-(2-pyrrolidin-1-ylethyl)-1,2,3,4-tetrahydroisoquinolin-6-yl]benzaimde], the Ki is less than 10 nM.

For `CCNC(=O)c1ccc(-c2ccc3c(c2)CCN(CCN2CCCC2)C3=O)c(F)c1` [Example 140, N-ethyl-3-fluoro-4-[1-oxo-2-(2-pyrrolidin-1-ylethyl)-1,2,3,4-tetrahydroisoquinolin-6-yl]benzamide], the Ki was less than 10 nM.

As for `CNC(=O)c1ccc(-c2ccc3c(c2)CCN(CCCN2CCCC2)C3=O)cc1` [Example 141, N-methyl-4-[1-oxo-2-(3-pyrrolidin-1-ylpropyl)-1,2,3,4-tetrahydroisoquinolin-6-yl]benzamide], the Ki is less than 10 nM.

As for `C[C@@H]1CCCN1CCN1CCc2cc(C(=O)N3CCCCCC3)ccc2C1=O` [Example 144, 6-(azepan-1-ylcarbonyl)-2-{2-[(2R)-2-methylpyrrolidin-1-yl]ethyl}-3,4-dihydroisoquinolin-1(2H)-one], the Ki was less than 10 nM.

`C[C@@H]1CCCN1CCN1CCc2cc(C(=O)NC3CCC3)ccc2C1=O` [Example 145, N-cyclobutyl-2-{2-[(2R)-2-methylpyrrolidin-1-yl]ethyl}-1-oxo-1,2,3,4-tetrahydroisoquinoline-6-carboxamide]: the Ki was less than 10 nM.

As to `C[C@@H]1CCCN1CCN1CCc2cc(C(=O)N3CCCCC3)ccc2C1=O` [Example 146, 2-{2-[(2R)-2-methylpyrrolidin-1-yl]ethyl}-6-(piperidin-1-ylcarbonyl)-3,4-dihydroisoquinolin-1(2H)-one], the Ki was less than 10 nM.

In the case of `C[C@@H]1CCCN1CCN1CCc2cc(C(=O)NC3CCCCC3)ccc2C1=O` [Example 147, N-cyclohexyl-2-{2-[(2R)-2-methylpyrrolidin-1-yl]ethyl}-1-oxo-1,2,3,4-tetrahydroisoquinoline-6-carboxamide], the Ki was less than 10 nM.

In the case of `C[C@@H]1CCCN1CCN1CCc2cc(C(=O)NC3Cc4ccccc4C3)ccc2C1=O` [Example 148, N-(2,3-dihydro-1H-inden-2-yl)-2-{2-[(2R)-2-methylpyrrolidin-1-yl]ethyl}-1-oxo-1,2,3,4-tetrahydroisoquinoline-6-carboxamide], the Ki is less than 10 nM.

With `C[C@@H]1CCCN1CCN1CCc2cc(C(=O)NC3CCCC3)ccc2C1=O` [Example 149, N-cyclopentyl-2-{2-[(2R)-2-methylpyrrolidin-1-yl]ethyl}-1-oxo-1,2,3,4-tetrahydroisoquinoline-6-carboxamide], the Ki is less than 10 nM.

As to `C[C@@H]1CCCN1CCN1CCc2cc(C(=O)N3CCc4ccccc4C3)ccc2C1=O` [Example 150, 6-(3,4-dihydroisoquinolin-2(1H)-ylcarbonyl)-2-{2-[(2R)-2-methylpyrrolidin-1-yl]ethyl}-3,4-dihydroisoquinolin-1(2H)-one], the Ki was less than 10 nM.

Consider `C[C@@H]1CCCN1CCN1CCc2cc(C(=O)N3CCCC3)ccc2C1=O` [Example 151, 2-{2-[(2R)-2-methylpyrrolidin-1-yl]ethyl}-6-(pyrrolidin-1-ylcarbonyl)-3,4-dihydroisoquinolin-1(2H)-one], for which the Ki is less than 10 nM.

Regarding `C[C@@H]1CCCN1CCN1CCc2cc(C(=O)N3Cc4ccccc4C3)ccc2C1=O` [Example 152, 6-(1,3-dihydro-2H-isoindol-2-ylcarbonyl)-2-{2-[(2R)-2-methylpyrrolidin-1-yl]ethyl}-3,4-dihydroisoquinolin-1(2H)-one], the Ki is less than 10 nM.

For `C[C@@H]1CCCN1CCN1CCc2cc(C(=O)Nc3ccncc3)ccc2C1=O` [Example 153, 2-{2-[(2R)-2-methylpyrrolidin-1-yl]ethyl}-1-oxo-N-pyridin-4-yl-1,2,3,4-tetrahydroisoquinoline-6-carboxamide], the inhibition constant (Ki) is less than 10 nM.

As for `C[C@@H]1CCCN1CCN1CCc2cc(-n3cnc4ccccc43)ccc2C1=O` [Example 154, (R)-6-(1H-benzo[d]imidazol-1-yl)-2-(2-(2-methylpyrrolidin-1-yl)ethyl)-3,4-dihydroisoquinolin-1(2H)-one hydrochloride], the Ki is less than 10 nM.

As for `C[C@@H]1CCCN1CCN1CCc2cc(-c3ccc4c(c3)CCNC4=O)ccc2C1=O` [Example 157, (R)-2-(2-(2-methylpyrrolidin-1-yl)ethyl)-3,3′,4,4′-tetrahydro-6,6′-biisoquinoline-1,1′(2H,2′H-dione hydrochloride], the Ki was less than 10 nM.

In the case of `C[C@@H]1CCCN1CCN1CCc2cc(Oc3ccc(C(=O)N4CCCC4)cc3)ccc2C1=O` [Example 160, 2-{2-[(2R)-2-methylpyrrolidin-1-yl]ethyl}-6-[4-(pyrrolidin-1-ylcarbonyl)phenoxy]-3,4-dihydroisoquinolin-1(2H)-one hydrochloride], the Ki was less than 10 nM.

`C[C@@H]1CCCN1CCN1CCc2cc(N3CCCCC3)ccc2C1=O` [Example 161, 2-{2-[(2R)-2-methylpyrrolidin-1-yl]ethyl}-6-piperidin-1-yl-3,4-dihydroisoquinolin-1(2H)-one]: the Ki is less than 10 nM.

For `NC(=O)c1ccc(-c2ccc3c(c2)CCN(CCN2CCCC2)C3)cc1` [Example 180, 4-[2-(2-pyrrolidin-1-ylethyl)-1,2,3,4-tetrahydroisoquinolin-6-yl]benzamide], the Ki fell in the range of 10.1 to 25 nM.

Take `CNC(=O)c1ccc(-c2ccc3c(c2)CCN(CCN2CCCC2)C3)cc1` [Example 181, N-methyl-4-[2-(2-pyrrolidin-1-ylethyl)-1,2,3,4-tetrahydroisoquinolin-6-yl]benzamide]: the Ki was less than 10 nM.

Regarding `CCNC(=O)c1ccc(-c2ccc3c(c2)CCN(CCN2CCCC2)C3)cc1` [Example 182, N-ethyl-4-[2-(2-pyrrolidin-1-ylethyl)-1,2,3,4-tetrahydroisoquinolin-6-yl]benzamide], the inhibition constant (Ki) is less than 10 nM.

In the case of `CN(C)C(=O)c1ccc(-c2ccc3c(c2)CCN(CCN2CCCC2)C3)cc1` [Example 183, N,N-dimethyl-4-[2-(2-pyrrolidin-1-ylethyl)-1,2,3,4-tetrahydroisoquinolin-6-yl]benzamide], the Ki is less than 10 nM.

In the case of `O=C(c1ccc(-c2ccc3c(c2)CCN(CCN2CCCC2)C3)cc1)N1CCCC1` [Example 184, 6-[4-(pyrrolidin-1-ylcarbonyl)phenyl]-2-(2-pyrrolidin-1-ylethyl)-1,2,3,4-tetrahydroisoquinoline], the Ki was less than 10 nM.

As to `O=C(c1ccc(-c2ccc3c(c2)CCN(CCN2CCCC2)C3)cc1)N1CCCCC1` [Example 185, 6-[4-(piperidin-1-ylcarbonyl)phenyl]-2-(2-pyrrolidin-1-ylethyl)-1,2,3,4-tetrahydroisoquinoline], the Ki was in the range of 10.1 to 25 nM.

For the molecule `O=C(c1ccc(-c2ccc3c(c2)CCN(CCN2CCCC2)C3)cc1)N1CCOCC1` [Example 186, 6-[4-(morpholin-4-ylcarbonyl)phenyl]-2-(2-pyrrolidin-1-ylethyl)-1,2,3,4-tetrahydroisoquinoline], the Ki is less than 10 nM.

Take `C[C@@H]1CCCN1C(=O)c1ccc(-c2ccc3c(c2)CCN(CCN2CCCC2)C3)cc1` [Example 187]: the Ki was in the range of 10.1 to 25 nM.

System in a further series: not given
Assay: not given
Conditions: not given
The molecule `O=C(O)c1ccc(Oc2ccc3c(c2)CCN(CCN2CCCC2)C3=O)cc1` yielded a melting point of 99 to 100 °C.
